From US7767659B2, “Synthesis of naturally occurring ecteinascidins and related compounds” (Pharma Mar, S.A., priority 2002, dated 2010)
Read-outs that look alike come from different tables or passages of the source.

How the values were obtained:
A-549 = experiment: cells; details: Homo sapiens, A549, 48 h
How it was run: (§1)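 Colorimetric SRB read (490 nm) on triplicate wells after 48 h at 37 °C, 5% CO2. Dose range 10 to 10^−8 μg/ml; 5×10^3 cells/well pre-attached 18 h.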

HT-29 = experiment: cells; details: Homo sapiens, HT-29, 48 h
How it was run: as §1

LoVo = experiment: cells; details: Homo sapiens, LoVo, 48 h; for GI50: read-out: LOVO GI50; for CC50: read-out: LOVO LC50; for IC (TGI): read-out: LOVO TGI
How it was run: as §1

DU-145 = experiment: Inhibition of cells growth by colorimetric assay (SRB); details: Homo sapiens, DU-145, 48 h
How it was run: as §1

HeLa-APL = experiment: as above; details: Homo sapiens, 48 h; for GI50: read-out: HELA-APL GI50; for CC50: read-out: HELA-APL LC50; for IC (TGI): read-out: HELA-APL TGI
How it was run: as §1

HeLa = experiment: as above; details: Homo sapiens, HeLa, 48 h; for GI50: read-out: HELA GI50; for CC50: read-out: HELA LC50; for IC (TGI): read-out: HELA TGI
How it was run: as §1

IGROV-1 = experiment: as above; details: Homo sapiens, IGROV-1, 48 h; for GI50: read-out: IGROV GI50; for CC50: read-out: IGROV LC50; for IC (TGI): read-out: IGROV TGI
How it was run: as §1

IGROV-ET = experiment: as above; details: Homo sapiens, 48 h; for GI50: read-out: IGROV-ET GI50; for CC50: read-out: IGROV-ET LC50; for IC (TGI): read-out: IGROV-ET TGI
How it was run: as §1

K-562 = experiment: as above; details: Homo sapiens, K562, 48 h; for GI50: read-out: K562 GI50; for CC50: read-out: K562 LC50; for IC (TGI): read-out: K562 TGI
How it was run: as §1

LNCaP = experiment: as above; details: Homo sapiens, LNCaP, 48 h
How it was run: as §1

LoVo-Dox = experiment: as above; details: Homo sapiens, 48 h; for GI50: read-out: LOVO-DOX GI50; for CC50: read-out: LOVO-DOX LC50; for IC (TGI): read-out: LOVO-DOX TGI
How it was run: as §1

PANC-1 = experiment: as above; details: Homo sapiens, PANC-1, 48 h; for GI50: read-out: PANC-1 GI50; for CC50: read-out: PANC-1 LC50; for IC (TGI): read-out: PANC-1 TGI
How it was run: as §1

SK-BR-3 = experiment: as above; details: Homo sapiens, SK-BR-3, 48 h; for GI50: read-out: SK-BR3 GI50; for CC50: read-out: SK-BR3 LC50; for IC (TGI): read-out: SK-BR3 TGI
How it was run: as §1

SK-MEL-28 = experiment: as above; details: Homo sapiens, SK-MEL-28, 48 h
How it was run: as §1

`COc1c(C)cc2c(c1O)[C@H]1N[C@@H](C2)[C@H](O)N2C1[C@@H]1SCC(NC(C)=O)C(=O)OC[C@H]2c2c3c(c(C)c(OC(C)=O)c21)OCO3` (some centres unmarked) [compound 36] was tested, and the GI50 (A-549; read-out: GI50 A549) was 0.00556 µM, the CC50 (A-549; read-out: LC50 A549) was 0.0838 µM and the IC (TGI) (A-549; read-out: TGI A549) was 0.0229 µM. The GI50 (HT-29; read-out: GI50 HT29) was 0.00273 µM, the CC50 (HT-29; read-out: LC50 HT29) was 15.6 µM and the IC (TGI) (HT-29; read-out: TGI HT29) was 0.0117 µM. For the same compound, the GI50 (LoVo) was 0.00212 µM, the CC50 (LoVo) was 0.0156 µM and the IC (TGI) (LoVo) was 0.00591 µM. It also gave a GI50 (DU-145; read-out: GI50 DU145) of 0.00358 µM, a CC50 (DU-145; read-out: LC50 DU145) of 10.4 µM and an IC (TGI) (DU-145; read-out: TGI DU145) of 0.00955 µM. For the same compound, the GI50 (HeLa-APL) was 0.00185 µM, the CC50 (HeLa-APL) was 0.01 µM and the IC (TGI) (HeLa-APL) was 0.0043 µM. For the same compound, the GI50 (HeLa) was 0.00146 µM, the CC50 (HeLa) was 0.00982 µM and the IC (TGI) (HeLa) was 0.00385 µM. The GI50 (IGROV-1) was 0.00112 µM, the CC50 (IGROV-1) was 0.0104 µM and the IC (TGI) (IGROV-1) was 0.00379 µM. The GI50 (IGROV-ET) was 0.0277 µM, the CC50 (IGROV-ET) was 15.6 µM and the IC (TGI) (IGROV-ET) was 0.0717 µM. It also gave a GI50 (K-562) of 0.000246 µM, a CC50 (K-562) of 0.00511 µM and an IC (TGI) (K-562) of 0.0007 µM. The GI50 (LNCaP; read-out: GI50 LNCAP) was 0.00046 µM, the CC50 (LNCaP; read-out: LC50 LNCAP) was 0.00506 µM and the IC (TGI) (LNCaP; read-out: TGI LNCAP) was 0.00137 µM. The GI50 (LoVo-Dox) was 0.246 µM, the CC50 (LoVo-Dox) was 15.6 µM and the IC (TGI) (LoVo-Dox) was 1.09 µM. For the same compound, the GI50 (PANC-1) was 0.00282 µM, the CC50 (PANC-1) was 2.6 µM and the IC (TGI) (PANC-1) was 0.00972 µM. For the same compound, the GI50 (SK-BR-3) was 0.00287 µM, the CC50 (SK-BR-3) was 0.0154 µM and the IC (TGI) (SK-BR-3) was 0.00665 µM. It also gave a GI50 (SK-MEL-28; read-out: GI50 MEL-28) of 0.00184 µM, a CC50 (SK-MEL-28; read-out: LC50 MEL-28) of 0.00871 µM and an IC (TGI) (SK-MEL-28; read-out: TGI MEL-28) of 0.00401 µM.
For `C=CCN1[C@@H]2c3c(cc(C)c(OC)c3O)C[C@H]1[C@H](C#N)N1C2[C@@H]2SC[C@]3(NCCc4cc(O)c(OC)cc43)C(=O)OC[C@H]1c1c3c(c(C)c(OC(=O)CCCCCCC)c12)OCO3` (some centres unmarked) [compound 50], the GI50 (A-549; read-out: A549 GI50) was 3.76 µM, the CC50 (A-549; read-out: A549 LC50) was 11.3 µM and the IC (TGI) (A-549; read-out: A549 TGI) was 11.3 µM. The GI50 (HT-29; read-out: HT29 GI50) was 8.9 µM, the CC50 (HT-29; read-out: HT29 LC50) was 11.3 µM and the IC (TGI) (HT-29; read-out: HT29 TGI) was 11.3 µM. The GI50 (LoVo) was 4.94 µM, the CC50 (LoVo) was 11.3 µM and the IC (TGI) (LoVo) was 11.3 µM. The GI50 (DU-145; read-out: DU145 GI50) was 1.8 µM, the CC50 (DU-145; read-out: DU145 LC50) was 1130 µM and the IC (TGI) (DU-145; read-out: DU145 TGI) was 918 µM. The GI50 (HeLa-APL) was 3.11 µM, the CC50 (HeLa-APL) was 11.3 µM and the GI50 (HeLa) was 3.75 µM. The CC50 (HeLa) was 11.3 µM, the IC (TGI) (HeLa) was 11.3 µM and the GI50 (IGROV-1) was 2.42 µM. It also gave a CC50 (IGROV-1) of 1130 µM, an IC (TGI) (IGROV-1) of 11.3 µM and a GI50 (IGROV-ET) of 3.29 µM. For the same compound, the CC50 (IGROV-ET) was 11.3 µM, the IC (TGI) (IGROV-ET) was 11.3 µM and the GI50 (K-562) was 0.891 µM. For the same compound, the CC50 (K-562) was 11.3 µM, the IC (TGI) (K-562) was 11.3 µM and the GI50 (LNCaP; read-out: LNCAP GI50) was 0.948 µM. The CC50 (LNCaP; read-out: LNCAP LC50) was 11.3 µM, the IC (TGI) (LNCaP; read-out: LNCAP TGI) was 3.68 µM and the GI50 (LoVo-Dox) was 10.1 µM. The CC50 (LoVo-Dox) was 11.3 µM, the IC (TGI) (LoVo-Dox) was 11.3 µM and the GI50 (PANC-1) was 2.45 µM. It also gave a CC50 (PANC-1) of 11.3 µM, an IC (TGI) (PANC-1) of 11.3 µM and a GI50 (SK-BR-3) of 13.1 µM. For the same compound, the CC50 (SK-BR-3) was 11.3 µM, the IC (TGI) (SK-BR-3) was 11.3 µM and the GI50 (SK-MEL-28; read-out: MEL-28 GI50) was 2.53 µM. For the same compound, the CC50 (SK-MEL-28; read-out: MEL-28 LC50) was 11.3 µM and the IC (TGI) (SK-MEL-28; read-out: MEL-28 TGI) was 8.36 µM.
In the case of `C=CCN1[C@@H]2c3c(cc(C)c(OC)c3O)C[C@H]1[C@H](O)N1C2[C@@H]2SCC(NC(C)=O)C(=O)OC[C@H]1c1c3c(c(C)c(OC(C)=O)c12)OCO3` (some centres unmarked) [compound 41], the GI50 (A-549; read-out: A549 GI50) is reported as 0.0431 µM, the CC50 (A-549; read-out: A549 LC50) is reported as 0.125 µM and the IC (TGI) (A-549; read-out: A549 TGI) is reported as 0.0735 µM. The GI50 (HT-29; read-out: HT29 GI50) was 0.0427 µM, the CC50 (HT-29; read-out: HT29 LC50) was 14.7 µM and the IC (TGI) (HT-29; read-out: HT29 TGI) was 0.12 µM. The GI50 (LoVo) was 0.0378 µM, the CC50 (LoVo) was 14.7 µM and the IC (TGI) (LoVo) was 0.094 µM. It also gave a GI50 (DU-145; read-out: DU145 GI50) of 0.0453 µM, a CC50 (DU-145; read-out: DU145 LC50) of 0.274 µM and an IC (TGI) (DU-145; read-out: DU145 TGI) of 0.0755 µM. The GI50 (HeLa-APL) was 0.0301 µM, the CC50 (HeLa-APL) was 0.132 µM and the IC (TGI) (HeLa-APL) was 0.0631 µM. The GI50 (HeLa) was 0.0282 µM, the CC50 (HeLa) was 0.12 µM and the IC (TGI) (HeLa) was 0.0581 µM. It also gave a GI50 (IGROV-1) of 0.0157 µM, a CC50 (IGROV-1) of 0.121 µM and an IC (TGI) (IGROV-1) of 0.0437 µM. The GI50 (IGROV-ET) was 0.0418 µM, the CC50 (IGROV-ET) was 14.7 µM and the IC (TGI) (IGROV-ET) was 0.0871 µM. The GI50 (K-562) was 0.0204 µM, the CC50 (K-562) was 0.125 µM and the IC (TGI) (K-562) was 0.0505 µM. The GI50 (LNCaP; read-out: LNCAP GI50) was 0.00095 µM, the CC50 (LNCaP; read-out: LNCAP LC50) was 0.0928 µM and the IC (TGI) (LNCaP; read-out: LNCAP TGI) was 0.0314 µM. It also gave a GI50 (LoVo-Dox) of 0.27 µM, a CC50 (LoVo-Dox) of 14.7 µM and an IC (TGI) (LoVo-Dox) of 1.18 µM. It also gave a GI50 (PANC-1) of 0.0377 µM, a CC50 (PANC-1) of 14.7 µM and an IC (TGI) (PANC-1) of 0.1 µM. For the same compound, the GI50 (SK-BR-3) was 0.0323 µM, the CC50 (SK-BR-3) was 0.352 µM and the IC (TGI) (SK-BR-3) was 0.0722 µM. For the same compound, the GI50 (SK-MEL-28; read-out: MEL-28 GI50) was 0.0337 µM, the CC50 (SK-MEL-28; read-out: MEL-28 LC50) was 0.123 µM and the IC (TGI) (SK-MEL-28; read-out: MEL-28 TGI) was 0.0645 µM.
